Consider 13 compounds from ChEMBL document CHEMBL1134706, “Novel cytotoxic 7-iminomethyl and 7-aminomethyl derivatives of camptothecin” (Bioorg Med Chem Lett, 2001).

One series relates to NCI-H460. Nature of the series: In vitro cytotoxicity against H460 a human non-small lung carcinoma cell line after 1 hour drug exposure. It is filed as functional, cell-based. The settings on record: NCI-H460, 1 h.
Series [1] can be described thus: Partition coefficient (logP). It is filed as physicochemical. The settings on record: octanol/water.
Series [2] is described as follows: In vivo antitumor activity in NSCLC H460 xenografted sc in athymic nude mice expressed as percent Body weight loss (BWL) at a dose of 15 mg/kg orally for q4dx4. The series is classed as functional, Mus musculus. The settings on record: route oral.
A short description of series [3]: In vivo antitumor activity in NSCLC H460 xenografted sc in athymic nude mice expressed as percent tumor volume inhibition (TVI) at a dose of 15 mg/kg perorally for q4dx4. The settings on record: route oral. It is filed as functional, Mus musculus.
A short description of series [4]: In vivo antitumor activity in NSCLC H460 xenografted sc in athymic nude mice expressed as percent Body weight loss (BWL) at a dose of 18 mg/kg orally for q4dx4. The series is classed as functional, Mus musculus. The settings on record: route oral.
Series [5] is described as follows: In vivo antitumor activity in NSCLC H460 xenografted sc in athymic nude mice expressed as percent Body weight loss (BWL) at a dose of 2 mg/kg orally for q4dx4. It is filed as functional, Mus musculus. The settings on record: route oral.
A short description of series [6]: In vivo antitumor activity in NSCLC H460 xenografted sc in athymic nude mice expressed as percent Tumor volume inhibition (TVI) at a dose of 18 mg/kg perorally for q4dx4. The series is classed as functional, Mus musculus. The settings on record: route oral.
Series [7] can be described thus: In vivo antitumor activity in NSCLC H460 xenografted sc in athymic nude mice expressed as percent Body weight loss (BWL) at a dose of 6 mg/kg orally for q4dx4. It is filed as functional, Mus musculus. Conditions: route oral.
The nature of series [8]: In vivo antitumor activity in NSCLC H460 xenografted sc in athymic nude mice expressed as percent Tumor volume inhibition (TVI) at a dose of 6 mg/kg perorally for q4dx4. The series is classed as functional, Mus musculus. Conditions: route oral.
Series [9] can be described thus: In vivo antitumor activity in NSCLC H460 xenografted sc in athymic nude mice expressed as percent tumor volume inhibition (TVI) at a dose of 2 mg/kg perorally for q4dx4. Conditions: route oral. It is filed as functional, Mus musculus.

As usually defined, the IC50 is the concentration that inhibits the measured activity by half. A low value points to inhibition by little substance. By logP is commonly meant the decadic logarithm of the partition coefficient of the neutral form, usually between octanol and water. Low readings indicate lower lipophilicity, high ones higher lipophilicity. `CC[C@@]1(O)C(=O)OCc2c1cc1n(c2=O)Cc2c-1nc1ccccc1c2/C=N/c1ccc([N+](=O)[O-])cc1`: the IC50 with NCI-H460 was 280 nM. Further, the logP in series [1] was determined as 2.34.

In the series on NCI-H460, `CC[C@@]1(O)C(=O)OCc2c1cc1n(c2=O)Cc2c-1nc1ccccc1c2CN` came in with an IC50 of 2370 nM. This compound also yielded a logP in series [1] of 0.37.

In turn, `CC[C@@]1(O)C(=O)OCc2c1cc1n(c2=O)Cc2c-1nc1ccccc1c2CNC1CCCCC1` registered an IC50 with NCI-H460 of 350 nM. The logP in series [1] was 2.44.

For `CC[C@@]1(O)C(=O)OCc2c1cc1n(c2=O)Cc2c-1nc1ccccc1c2CNCCN(C)C`, it took 450 nM to reach half-maximal inhibition in the series with NCI-H460 (IC50). Further, the logP in [1] amounted to 0.89.

Consider `CC[C@@]1(O)C(=O)OCc2c1cc1n(c2=O)Cc2c-1nc1ccccc1c2/C=N/Cc1ccccc1`, for which the IC50 in the series with NCI-H460 stood at 280 nM. Besides, the log partition coefficient (logP) in series [1] turned out to be 3.26.

The compound `CC[C@@]1(O)C(=O)OCc2c1cc1n(c2=O)Cc2c-1nc1ccccc1c2/C=N/CCCCO` gave an IC50 in the series with NCI-H460 of 360 nM. For the same compound, the logP in series [1] worked out at 1.57.

The compound `CC[C@@]1(O)C(=O)OCc2c1cc1n(c2=O)Cc2c-1nc1ccccc1c2/C=N/CCN(C)C` came in with an IC50 in the series with NCI-H460 of 120 nM. This compound showed a logP in [1] of 1.53.

In the case of `CC[C@@]1(O)C(=O)OCc2c1cc1n(c2=O)Cc2cc3c(CN(C)C)c(O)ccc3nc2-1` [TOPOTECAN], the BWL in [2] stood at 12%. In the series with NCI-H460, this compound had an IC50 of 1380 nM. In series [3], this compound showed a TVI of 95%.

As for `CC[C@@]1(O)C(=O)OCc2c1cc1n(c2=O)Cc2c-1nc1ccccc1c2/C=N/C1CCCCC1`, half-maximal inhibition with NCI-H460 (IC50) was put at 370 nM. In addition, in series [1], the logP turned out to be 3.08.

The compound `CC[C@@]1(O)C(=O)OCc2c1cc1n(c2=O)Cc2c-1nc1ccccc1c2CN=C(N)N` had an IC50 in the series on NCI-H460 of 12600 nM. Also, in [1], the logP was -0.79.

As to `CC[C@@]1(O)C(=O)OCc2c1cc1n(c2=O)Cc2c-1nc1ccccc1c2CNc1ccccc1`, in the series with NCI-H460, the IC50 is 310 nM. The compound further displayed a logP in series [1] of 2.56.

Take `CC[C@@]1(O)C(=O)OCc2c1cc1n(c2=O)Cc2c-1nc1ccccc1c2/C=N/N=C(N)N`: it took 39300 nM to reach half-maximal inhibition with NCI-H460 (IC50). This compound had a logP in [1] of 0.67.

In the case of `CC[C@@]1(O)C(=O)OCc2c1cc1n(c2=O)Cc2c-1nc1ccccc1c2/C=N/c1ccccc1`, the values for the BWL in series [4], in series [5] and in [7] were 1%, 2% and 7%, respectively. The compound further showed an IC50 with NCI-H460 of 130 nM. The logP in [1] was determined as 3.19. Moreover, the figures for the TVI in series [6], in series [8] and in [9] were 89%, 51% and 33%, respectively.
